{
  "source": "patent US20250230193A1",
  "about": "“CYCLIC COMPOUND HAVING SELECTIVE KRAS INHIBITORY EFFECT ON HRAS AND NRAS” (CHUGAI SEIYAKU KABUSHIKI KAISHA, priority 2022, published 2025)",
  "key": {"[1]": {"target": "GDP-bound NRAS wild-type protein (Homo sapiens, UniProt P01111)", "sequence (P01111 whole entry)": "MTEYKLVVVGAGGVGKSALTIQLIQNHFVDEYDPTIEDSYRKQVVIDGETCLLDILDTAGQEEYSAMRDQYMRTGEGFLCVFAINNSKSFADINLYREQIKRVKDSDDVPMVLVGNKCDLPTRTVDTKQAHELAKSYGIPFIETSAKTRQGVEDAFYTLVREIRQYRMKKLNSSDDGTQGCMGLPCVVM", "experiment": "Binding to NRAS by surface plasmon resonance (SPR), Single Cycle Kinetics"}, "[2]": {"target": "GDP-bound HRAS wild-type protein (Homo sapiens, UniProt P01112)", "sequence (P01112 whole entry)": "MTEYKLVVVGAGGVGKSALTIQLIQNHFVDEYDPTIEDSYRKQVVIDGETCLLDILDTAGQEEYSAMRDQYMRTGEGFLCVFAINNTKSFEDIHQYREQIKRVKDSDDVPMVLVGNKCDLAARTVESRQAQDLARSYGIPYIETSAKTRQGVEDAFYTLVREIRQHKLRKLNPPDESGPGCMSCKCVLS", "experiment": "Binding to HRAS by surface plasmon resonance (SPR), Single Cycle Kinetics"}},
  "note": "Where a SMILES comes first, the peptide text is derived from it. Bridges are numbered along the chain shown (N, C = ends). [ ]: non-standard residue; d: D form. The star is where a group is joined. hPhe(3-Cl-4-CF3) = N[C@@H](CCc1ccc(C(F)(F)F)c(Cl)c1)C(=O)O; NPrPhe(4-CF3) = CCCN[C@@H](Cc1ccc(C(F)(F)F)cc1)C(=O)O; Piperazinyl(4-(3-oxetanyl)) = C1OCC1N1CCN(*)CC1; NMeGly(cPent) = CN[C@H](C(=O)O)C1CCCC1; NMeD = CN[C@@H](CC(=O)O)C(=O)O; NMeL = CN[C@@H](CC(C)C)C(=O)O; NMeA = CN[C@@H](C)C(=O)O; Ac5c = NC1(C(=O)O)CCCC1; Aze = O=C(O)[C@@H]1CCN1; Sar = CNCC(=O)O",
  "data": [
    {"smiles": "CCC(CC)[C@H]1C(=O)N(C)[C@H](C(=O)N(C)C)CC(=O)N(C)[C@@H](COC)C(=O)N[C@@H]([C@@H](C)CC)C(=O)N(C)CC(=O)N(C)[C@H]2C/C=C\\CCN(C2=O)[C@@H](Cc2ccc(C(F)(F)F)cc2)C(=O)N(C)CC(=O)N[C@@H](CCc2ccc(Cl)c(Cl)c2)C(=O)N2C[C@H](OC3CCCC3)C[C@H]2C(=O)NC2(CC(C)(C)C2)C(=O)N1C", "note": "[PP2648]", "values": [
      {"measurement": "NRAS/KRAS (ratio of KD value with respect to GDP-bound NRAS wild-type protein to KD value with respect to KRAS)", "setting": "[1]; KD ratio NRAS/KRAS, class symbols", "value": "A (a compound having 10 or more and less than 20 is denoted as A)"},
      {"measurement": "HRAS/KRAS (ratio of KD value with respect to GDP-bound HRAS wild-type protein to KD value with respect to KRAS)", "setting": "[2]; KD ratio HRAS/KRAS, class symbols", "value": "A (a compound having 10 or more and less than 20 is denoted as A)"}
    ]},
    {"smiles": "C=CCCCCN(C)C(=O)[C@@H]1CC(=O)N(C)[C@@H](CC2CC2)C(=O)N[C@@H](CC=C)C(=O)N(C)CC(=O)N(C)[C@H]2C/C=C\\CCN(C2=O)[C@@H](Cc2ccc(C(F)(F)F)cc2)C(=O)N(C)CC(=O)N[C@@H](CCc2cc(F)c(C(F)(F)F)c(F)c2)C(=O)N2C[C@H](OCC)C[C@H]2C(=O)NC2(CCC2)C(=O)N(C)[C@@H](C2CCCC2)C(=O)N1C", "note": "[PP1554]", "values": [
      {"measurement": "NRAS/KRAS (ratio of KD value for GDP-bound NRAS wild-type protein to KD value for KRAS)", "setting": "[1]; SPR, KD ratio class", "value": "A (a compound having 10 or more and less than 20 is denoted as A)"},
      {"measurement": "HRAS/KRAS (ratio of KD value for GDP-bound HRAS wild-type protein to KD value for KRAS)", "setting": "[2]; SPR, KD ratio class", "value": "A (a compound having 10 or more and less than 20 is denoted as A)"}
    ]},
    {"smiles": "CCCO[C@@H]1C[C@H]2C(=O)NC3(CC(C)(C)C3)C(=O)N(C)[C@@H](C3CCCC3)C(=O)N(C)[C@H](C(=O)N3CCCC3)CC(=O)N(C)[C@H]3CCCc4ccc(cc4)C[C@@H](C(=O)N(C)CC(=O)N[C@@H](CCc4ccc(C(F)(F)F)c(OC)c4)C(=O)N2C1)N1CC/C=C\\C[C@@H](C1=O)N(C)C(=O)CN(C)C(=O)[C@H]([C@@H](C)CC)NC3=O", "note": "[PP3065]", "values": [
      {"measurement": "NRAS/KRAS (ratio of KD value with respect to GDP-bound NRAS wild-type protein to KD value with respect to KRAS)", "setting": "[1]; KD ratio NRAS/KRAS, SPR, GDP-bound wild-type proteins", "value": "A (a compound having 10 or more and less than 20 is denoted as A)"},
      {"measurement": "HRAS/KRAS (ratio of KD value with respect to GDP-bound HRAS wild-type protein to KD value with respect to KRAS)", "setting": "[2]; KD ratio HRAS/KRAS, SPR, GDP-bound wild-type proteins", "value": "B (a compound having 3 or more and less than 10 is denoted as B)"}
    ]},
    {"smiles": "CCO[C@@H]1C[C@H]2C(=O)NC3(CC(C)(C)C3)C(=O)N(C)[C@@H](C3CCCC3)C(=O)N(C)[C@H](C(=O)N3CCOCC3)CC(=O)N(C)[C@@H](CC(C)C)C(=O)N[C@@H]([C@@H](C)CC)C(=O)N(C)CC(=O)N(C)[C@H]3CCCCCN(C3=O)[C@@H](Cc3ccc(C(F)(F)F)cc3)C(=O)N(C)CC(=O)N[C@@H](CCc3cc(F)c(C(F)(F)F)c(F)c3)C(=O)N2C1", "note": "[PP0726]", "values": [
      {"measurement": "NRAS/KRAS (ratio of KD value with respect to GDP-bound NRAS wild-type protein to KD value with respect to KRAS)", "setting": "[1]; KD ratio NRAS/KRAS, SPR", "value": "B (a compound having 3 or more and less than 10 is denoted as B)"},
      {"measurement": "HRAS/KRAS (ratio of KD value with respect to GDP-bound HRAS wild-type protein to KD value with respect to KRAS)", "setting": "[2]; KD ratio HRAS/KRAS, SPR", "value": "B (a compound having 3 or more and less than 10 is denoted as B)"}
    ]},
    {"smiles": "CC[C@H](C)[C@@H]1NC(=O)[C@H](CC(C)C)N(C)C(=O)C[C@@H](C(=O)N(C)C)N(C)C(=O)[C@H](C2CCCC2)N(C)C(=O)C2(CCCC2)NC(=O)[C@@H]2CCCN2C(=O)[C@H](CCc2ccc(C(F)(F)F)c(Cl)c2)NC(=O)CN(C)C(=O)[C@H](Cc2ccc(C)cc2)N2CC=C(C)C[C@@H](C2=O)N(C)C(=O)CN(C)C1=O", "note": "[PP0620]", "values": [
      {"measurement": "NRAS/KRAS (ratio of KD value with respect to GDP-bound NRAS wild-type protein to KD value with respect to KRAS)", "setting": "[1]; KD ratio NRAS/KRAS, SPR", "value": "C (A compound having a KD ratio of 0.1 or more and less than 3 is denoted as C)"},
      {"measurement": "HRAS/KRAS (ratio of KD value with respect to GDP-bound HRAS wild-type protein to KD value with respect to KRAS)", "setting": "[2]; KD ratio HRAS/KRAS, SPR", "value": "C (A compound having a KD ratio of 0.1 or more and less than 3 is denoted as C)"}
    ]},
    {"smiles": "CCO[C@@H]1C[C@H]2C(=O)NC3(CC(C)(C)C3)C(=O)N(C)[C@@H](C3CCCC3)C(=O)N(C)[C@H](C(=O)N(C)CC)CC(=O)N(C)[C@@H](COC)C(=O)N[C@@H]([C@@H](C)CC)C(=O)N(C)CC(=O)N(C)[C@H]3C/C=C\\CCN(C3=O)[C@@H](Cc3ccc(C)cc3)C(=O)N(C)CC(=O)N[C@@H](CCc3ccc(C(F)(F)F)c(OC)c3)C(=O)N2C1", "note": "[PP2392]", "values": [
      {"measurement": "NRAS/KRAS (ratio of KD value with respect to NRAS to KD value with respect to KRAS)", "setting": "[1]; SPR, GDP-bound NRAS wild-type vs GDP-bound KRAS wild-type", "value": "A (a compound having 10 or more and less than 20 is denoted as A)"},
      {"measurement": "HRAS/KRAS (ratio of KD value with respect to HRAS to KD value with respect to KRAS)", "setting": "[2]; SPR, GDP-bound HRAS wild-type vs GDP-bound KRAS wild-type", "value": "A (a compound having 10 or more and less than 20 is denoted as A)"}
    ]},
    {"smiles": "CCCN1C(=O)[C@@H]2CCN2C(=O)[C@H](C)N(C)C(=O)[C@H]([C@@H](C)CC)NC(=O)[C@H](CC(C)C)N(C)C(=O)C[C@@H](C(=O)N2CCN(C3COC3)CC2)N(C)C(=O)[C@H](C2CCCC2)N(C)C(=O)C2(CCCC2)NC(=O)[C@@H]2CCCN2C(=O)[C@H](CCc2ccc(C(F)(F)F)c(Cl)c2)NC(=O)CN(C)C(=O)[C@@H]1Cc1ccc(C(F)(F)F)cc1", "note": "[PP0184] ([NMeL]I[NMeA][Aze][NPrPhe(4-CF3)][Sar][hPhe(3-Cl-4-CF3)]P[Ac5c][NMeGly(cPent)][NMeD]-{Piperazinyl(4-(3-oxetanyl))}; lactam N-11)", "values": [
      {"measurement": "NRAS/KRAS (ratio of KD for GDP-bound NRAS wild-type to KD for KRAS)", "setting": "[1]; KD ratio NRAS/KRAS, SPR", "value": "C (A compound having a KD ratio of 0.1 or more and less than 3 is denoted as C)"},
      {"measurement": "HRAS/KRAS (ratio of KD for GDP-bound HRAS wild-type to KD for KRAS)", "setting": "[2]; KD ratio HRAS/KRAS, SPR", "value": "B (a compound having 3 or more and less than 10 is denoted as B)"}
    ]}
  ]
}
